Results: patent US6706663B2, “Herbicidal 3-heterocyclic substituted benzisothiazole and benzisoxazole compounds” (Wyeth, priority 2000, dated 2004)

How the values were obtained:
[1] = test system: ABUTH (Abutilon theophrasti); assay: Postemergence herbicidal evaluation; assay type: in vivo, Medic.
Method in brief: (§1)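 Visual 0–9 injury scores versus control plants, covering stand, vigour, malformation, size, chlorosis and general appearance, taken four to five weeks post-spray and averaged over replicate tests. Plants were sprayed at roughly two weeks old and held on greenhouse benches.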

[2] = test system: AMBEL (Ambrosia artemisifolia); assay: Postemergence herbicidal evaluation; assay type: in vivo, L.
Method in brief: as §1

[3] = test system: CASOB (Cassia obtusifolia); assay: Postemergence herbicidal evaluation; assay type: in vivo, L.
Method in brief: as §1

[4] = test system: CHEAL (Chenopodium album); assay: Postemergence herbicidal evaluation; assay type: in vivo, L.
Method in brief: as §1

[5] = test system: IPOHE (Ipomoea hederacea); assay: Postemergence herbicidal evaluation; assay type: in vivo, (L.) Jacq.
Method in brief: as §1

[6] = test system: ECHCG (Echinochloa crus-galli); assay: Postemergence herbicidal evaluation; assay type: in vivo, (L.) Beau
Method in brief: as §1

ORYSAT (Rice, Tebonnet) [7] = assay: Postemergence herbicidal evaluation; assay type: in vivo, Oryza sativa, (L.) Tebonnet
Method in brief: as §1

[8] = test system: TRZAWR (Wheat, Winter, cv Riband); assay: Postemergence herbicidal evaluation; assay type: in vivo, Triticum aestivum
Method in brief: as §1

ZEAMX (Corn, Field) = assay: Postemergence herbicidal evaluation; assay type: in vivo, Zea mays, L.
Method in brief: as §1

[9] = test system: ABUTH (Abutilon theophrasti); assay: Preemergence herbicidal evaluation; assay type: in vivo, Medic.; details: rated 4-5 weeks after treatment
[10] = test system: AMBEL (Ambrosia artemisifolia); assay: Preemergence herbicidal evaluation; assay type: in vivo, L.; details: rated 4-5 weeks after treatment
Method in brief: (§2)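 Preemergence soil spray, aq. acetone; greenhouse; visual 0–9 score vs control at 4–5 wk.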

[11] = test system: CASOB (Cassia obtusifolia); assay: Preemergence herbicidal evaluation; assay type: in vivo, L.; details: rated 4-5 weeks after treatment
Method in brief: as §2

[12] = test system: CHEAL (Chenopodium album); assay: Preemergence herbicidal evaluation; assay type: in vivo, L.; details: rated 4-5 weeks after treatment
Method in brief: as §2

ORYSAT (Rice, Tebonnet) [13] = assay: Preemergence herbicidal evaluation; assay type: in vivo, Oryza sativa, (L.) Tebonnet; details: rated 4-5 weeks after treatment
[14] = test system: TRZAWR (Wheat, Winter, cv Riband); assay: Preemergence herbicidal evaluation; assay type: in vivo, Triticum aestivum; details: rated 4-5 weeks after treatment
Method in brief: as §2

[15] = test system: ECHORC (Echinochloa oryzoides); assay: Flooded paddy, preemergence weed control; assay type: in vivo, Echinochloa oryzoides (Ard.) Fritsch.; details: rated 3-4 weeks after treatment, 0-9 rating scale
Method in brief: (§3)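 Greenhouse paddy test, preemergence. Seeds planted in the top 0.5 cm of silt loam soil, which remained flooded at 1.5–3 cm depth. Scored 0-9 by visual comparison with control.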

[16] = test system: CYPSE (Cyperus serotinus); assay: Flooded paddy, preemergence weed control; assay type: in vivo, Rottb.; details: rated 3-4 weeks after treatment, 0-9 rating scale
Method in brief: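 Seeds or propagules were planted 0.5 cm deep in silt loam and flooded to 1.5–3 cm. Compounds in 50/50 v/v aqueous/acetone were pipetted into the flood water at about 0.0080 to 0.1250 kg/ha. After 3–4 weeks in the greenhouse, effect was rated visually on a 0–9 scale versus untreated control.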

[17] = test system: SAGPY (Sagittaria pygmaea); assay: Flooded paddy, preemergence weed control; assay type: in vivo, L.; details: rated 3-4 weeks after treatment, 0-9 rating scale
Method in brief: as §3

ORYSAT (Rice, Tebonnet) [18] = assay: Flooded paddy, post-transplant rice tolerance; assay type: in vivo, Oryza sativa, (L.) Tebonnet; details: flooded paddy, post-transplant rice, rated 3-4 weeks after treatment, 0-9 rating scale
Method in brief: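 Ten-day-old seedlings, 2/pot, silt loam; flood kept 1.5–3 cm over soil; herbicide applied post-transplant; greenhouse; score 0–9 visual vs control.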

Cc1ccc(-c2nsc3ccc(-n4c(=O)cc(C(F)(F)F)n(C)c4=O)cc23)nc1 [Compound 42, 1-methyl-3-[3-(5-methyl-2-pyridyl)-1,2-benzisothiazol-5-yl]-6-(trifluoromethyl)uracil]
Postemergence herbicidal rating, ABUTH ([1]; rate 0.0320 kg/ha): 9.0
Postemergence herbicidal rating, ABUTH ([1]; rate 0.0620 kg/ha): 9.0
Postemergence herbicidal rating, ABUTH ([1]; rate 0.1250 kg/ha): 9.0
Postemergence herbicidal rating, AMBEL ([2]; rate 0.0320 kg/ha): 9.0
Postemergence herbicidal rating, AMBEL ([2]; rate 0.0620 kg/ha): 9.0
Postemergence herbicidal rating, AMBEL ([2]; rate 0.1250 kg/ha): 9.0
Postemergence herbicidal rating, CASOB ([3]; rate 0.0320 kg/ha): 1.0
Postemergence herbicidal rating, CASOB ([3]; rate 0.0620 kg/ha): 1.0
Postemergence herbicidal rating, CASOB ([3]; rate 0.1250 kg/ha): 4.0
Postemergence herbicidal rating, CHEAL ([4]; rate 0.0320 kg/ha): 9.0
Postemergence herbicidal rating, CHEAL ([4]; rate 0.0620 kg/ha): 9.0
Postemergence herbicidal rating, CHEAL ([4]; rate 0.1250 kg/ha): 9.0
Postemergence herbicidal rating, IPOHE ([5]; rate 0.0320 kg/ha): 9.0
Postemergence herbicidal rating, IPOHE ([5]; rate 0.0620 kg/ha): 9.0
Postemergence herbicidal rating, IPOHE ([5]; rate 0.1250 kg/ha): 9.0
Postemergence herbicidal rating, ECHCG ([6]; rate 0.0320 kg/ha): 1.0
Postemergence herbicidal rating, ECHCG ([6]; rate 0.0620 kg/ha): 1.0
Postemergence herbicidal rating, ECHCG ([6]; rate 0.1250 kg/ha): 3.0
Postemergence herbicidal rating, ORYSAT (ORYSAT (Rice, Tebonnet) [7]; rate 0.0320 kg/ha): 1.0
Postemergence herbicidal rating, ORYSAT (ORYSAT (Rice, Tebonnet) [7]; rate 0.0620 kg/ha): 1.5
Postemergence herbicidal rating, ORYSAT (ORYSAT (Rice, Tebonnet) [7]; rate 0.1250 kg/ha): 1.5
Postemergence herbicidal rating, TRZAWR ([8]; rate 0.0320 kg/ha): 4.0
Postemergence herbicidal rating, TRZAWR ([8]; rate 0.0620 kg/ha): 5.0
Postemergence herbicidal rating, TRZAWR ([8]; rate 0.1250 kg/ha): 5.0
Postemergence herbicidal rating, ZEAMX (ZEAMX (Corn, Field); rate 0.0320 kg/ha): 5.5
Postemergence herbicidal rating, ZEAMX (ZEAMX (Corn, Field); rate 0.0620 kg/ha): 5.5
Postemergence herbicidal rating, ZEAMX (ZEAMX (Corn, Field); rate 0.1250 kg/ha): 5.5
Preemergence herbicidal rating ABUTH ([9]; Rate 0.0620 kg/ha): 2.0
Preemergence herbicidal rating ABUTH ([9]; Rate 0.1250 kg/ha): 6.5
Preemergence herbicidal rating ABUTH ([9]; Rate 0.2500 kg/ha): 9.0
Preemergence herbicidal rating AMBEL ([10]; Rate 0.0620 kg/ha): 1.0
Preemergence herbicidal rating AMBEL ([10]; Rate 0.1250 kg/ha): 4.5
Preemergence herbicidal rating AMBEL ([10]; Rate 0.2500 kg/ha): 9.0
Preemergence herbicidal rating CASOB ([11]; Rate 0.0620 kg/ha): 0.5
Preemergence herbicidal rating CASOB ([11]; Rate 0.1250 kg/ha): 0.5
Preemergence herbicidal rating CASOB ([11]; Rate 0.2500 kg/ha): 0.0
Preemergence herbicidal rating CHEAL ([12]; Rate 0.0620 kg/ha): 9.0
Preemergence herbicidal rating CHEAL ([12]; Rate 0.1250 kg/ha): 9.0
Preemergence herbicidal rating CHEAL ([12]; Rate 0.2500 kg/ha): 9.0
Preemergence herbicidal rating ORYSAT (ORYSAT (Rice, Tebonnet) [13]; Rate 0.0620 kg/ha): 0.0
Preemergence herbicidal rating ORYSAT (ORYSAT (Rice, Tebonnet) [13]; Rate 0.1250 kg/ha): 3.5
Preemergence herbicidal rating ORYSAT (ORYSAT (Rice, Tebonnet) [13]; Rate 0.2500 kg/ha): 5.0
Preemergence herbicidal rating TRZAWR ([14]; Rate 0.0620 kg/ha): 0.0
Preemergence herbicidal rating TRZAWR ([14]; Rate 0.1250 kg/ha): 2.0
Preemergence herbicidal rating TRZAWR ([14]; Rate 0.2500 kg/ha): 5.0
herbicidal rating, ECHORC ([15]; rate 0.0320 kg/ha): 2.0
herbicidal rating, ECHORC ([15]; rate 0.1250 kg/ha): 6.0
herbicidal rating, CYPSE ([16]; rate 0.0320 kg/ha): 0.0
herbicidal rating, CYPSE ([16]; rate 0.1250 kg/ha): 0.0
herbicidal rating, SAGPY ([17]; rate 0.0320 kg/ha): 0.0
herbicidal rating, SAGPY ([17]; rate 0.1250 kg/ha): 3.0
herbicidal rating, ORYSAT (rice tolerance) (ORYSAT (Rice, Tebonnet) [18]; rate 0.0320 kg/ha): 3.0
herbicidal rating, ORYSAT (rice tolerance) (ORYSAT (Rice, Tebonnet) [18]; rate 0.1250 kg/ha): 4.0
